From patent EP3366286A1, “COMPOUNDS FOR TREATING SEPSIS” (Keller, Johannes, priority 2017, dated 2018)
“Also recorded” adds a separate entry of the source.

What was measured:
WT mice [1] = assay: Survival after cecal ligation and puncture (CLP); format: in vivo; conditions: 100 mg/kg subcutaneous every 12h (Figure 5F)
Procedure: (§1) Nat Protoc 4, 31-36 (2009). Briefly, an approximately 1 cm abdominal midline incision was made, followed by exposure of the cecum. After ligation, the cecum was punctured three times through and through with a 19-gauge needle and a small portion of feces was pressed out. After repositioning of the bowel, the abdomen was closed in layers using surgical sutures and metallic clips, and 1 ml of 0.9% NaCl (37° Celsius) was slowly injected subcutaneously for resuscitation. For induction of lethal endotoxemia, mice received an intraperitoneal (ip) injection of 40 mg/kg LPS. Survival was monitored at least every 6 h for 7 days after which the experiments were terminated. For pharmacologic proof-of-principle experiments involving II17a, mice received 100 µg/kg PCT and/or 2.5 µg/kg antibody treatment ip 30 minutes before and 12h after induction of septic shock through 40 mg/kg LPS ip. Non-specific IgG was used at equal concentrations. Olcegepant (100 mg/kg) was administered intraperitoneally or subcutaneously as indicated. […]
(§2) The number of samples was chosen according to established standards providing sufficient statistical power to enable the detection of biologically relevant differences in animal models. Data were analyzed by two-tailed Student's t-test using Excel software. […]

WT mice [2] = assay: Serum cytokine levels (ELISA) after sublethal LPS challenge; format: in vivo; conditions: 10 h after 10 mg/kg LPS, single injection of 100 mg/kg ip (Figure 5D)
Procedure: as §1, with “indicated. For in vivo experiments involving expression, histological, and FACS analyses, mice were challenged with a sublethal dose of LPS (10 mg/kg ip).” for “indicated.”
Serum was obtained by cardiac puncture. […] Serum concentrations of PCT, CT and CGRP were measured by ELISA (Kamiya #KT-25866, Bachem #S-1488.0001 BA, S-1167.0001 BA).

[3] = system: bone marrow-derived macrophages; assay: Cytokine mRNA expression (qRT-PCR) in primary macrophages stimulated with LPS and/or PCT; format: cell-based, mouse; conditions: macrophages in vitro, LPS plus PCT, mRNA levels (Figure 5C)
Procedure: RNA was isolated using the RNeasyMini kit (Qiagen). For qRT-PCR expression analysis, 1 µg of RNA was reverse transcribed using SuperScriptIII (Invitrogen) according to the manufacturer's instructions. qRT-PCR analysis was performed using predesigned TaqMan gene expression assays (Applied Biosystems) and Gapdh as internal control.
Primary macrophages were generated from bone marrow cells cultured in DMEM supplemented 10% FCS and 40 ng/ml M-CSF for 7 days. Primary DC were generated from mouse bone marrow cells which were grown in RPMI 1640 medium with 10% FBS supplemented with 100 U/ml GM-CSF and 20 ng/ml IL-4 for 7 days. For γδT cell preparations, spleens were dissected and processed through a 40-µm filter, followed by lysis of erythrocytes. γδT lymphocytes were subsequently purified using magnetic labeled beads (Miltenyi Biotec, #130-092-125). For the generation of primary osteoblasts, bone marrow cells were differentiated for 10 days in the presence of 25 µg/ml ascorbic acid and 5 mM β-glycerophosphate as described previously (Keller, J., et al. Calcitonin controls bone formation by inhibiting the release of sphingosine 1-phosphate from osteoclasts. Nat Commun 5, 5215 (2014)). […]

αCgrp-deficient mice = assay: Survival in lethal endotoxemia (40 mg/kg LPS ip); format: in vivo; conditions: 100 mg/kg ip immediately before 40 mg/kg LPS (Figure 5H)
Procedure: as §1, §2

Calca-deficient mice = assay: Survival in lethal endotoxemia (40 mg/kg LPS ip); format: in vivo; conditions: 100 mg/kg ip co-administered with (immediately before) 40 mg/kg LPS ip (Figure 5G)
Procedure: as §1, §2

WT mice [4] = assay: Survival in lethal endotoxemia (40 mg/kg LPS ip), monitored for 7 days; format: in vivo
Procedure: Nat Protoc 4, 31-36 (2009). Briefly, an approximately 1 cm abdominal midline incision was made, followed by exposure of the cecum. After ligation, the cecum was punctured three times through and through with a 19-gauge needle and a small portion of feces was pressed out. After repositioning of the bowel, the abdomen was closed in layers using surgical sutures and metallic clips, and 1 ml of 0.9% NaCl (37° Celsius) was slowly injected subcutaneously for resuscitation. For induction of lethal endotoxemia, mice received an intraperitoneal (ip) injection of 40 mg/kg LPS. Survival was monitored at least every 6 h for 7 days after which the experiments were terminated. For pharmacologic proof-of-principle experiments involving II17a, mice received 100 µg/kg PCT and/or 2.5 µg/kg antibody treatment ip 30 minutes before and 12h after induction of septic shock through 40 mg/kg LPS ip. Non-specific IgG was used at equal concentrations. Olcegepant (100 mg/kg) was administered intraperitoneally or subcutaneously as indicated. For in vivo experiments involving expression, histological, and FACS analyses, mice were challenged with a sublethal dose of LPS (10 mg/kg ip). The use of in vivo experiments, especially CLP, was kept to a minimum throughout the study (replace, reduce, refine) in accordance to current recommendations for animal welfare in sepsis research (Lilley 2015). Experimental procedures were performed with approval from the animal care committees of the University Medical Center Hamburg-Eppendorf and the Behörde für Umwelt und Gesundheit der Hansestadt Hamburg.
The number of samples was chosen according to established standards providing sufficient statistical power to enable the detection of biologically relevant differences in animal models. Data were analyzed by two-tailed Student's t-test using Excel software. In the case of multiple comparisons, Bonferroni correction was used. Survival analyses were performed using the log-rank-test. If not indicated otherwise, all data are reported as mean ± SD. p<0.05 was considered statistically significant.

For `NCCCC[C@H](NC(=O)[C@@H](Cc1cc(Br)c(O)c(Br)c1)NC(=O)N1CCC(N2Cc3ccccc3NC2=O)CC1)C(=O)N1CCN(c2ccncc2)CC1` [olcegepant, N-((1R)-2-(((1S)-5-amino-1-((4-(pyridin-4-yl)piperazin-1-yl)carbonyl)pentyl)amino)-1-(3,5-dibromo-4-hydroxybenzyl)-2-oxoethyl)-4-(2-oxo-1,4-dihydroquinazolin-3(2H)-yl)piperidine-1-carboxamide], the mortality (WT mice [1]) was “significantly reduced”, the II1b levels (WT mice [2]) was “significant reduction” and the II17a levels (WT mice [2]) was “significant reduction”. For the same compound, the “LPS-dependent stimulatory effect of PCT on II1b expression” value [3] was “inhibited”, the “LPS-dependent stimulatory effect of PCT on II6 expression” value [3] was “inhibited” and the mortality rates (αCgrp-deficient mice) was “significantly improved mortality rates”. The survival (Calca-deficient mice) was “did not further improve the survival”, the mortality (WT mice [4]; 100 mg/kg ip immediately before 40 mg/kg LPS ip (Figure 5E)) was “significant reduction of mortality” and the survival (WT mice [4]; intermittent subcutaneous treatment 100 mg/kg every 12 hours, starting 4h after ip LPS challenge (Figure 5I)) was “significantly prolonged survival”. The mortality (WT mice [4]; single 100 mg/kg ip 4h after 40 mg/kg LPS ip, into the inflamed peritoneal cavity (Figure 12)) was “increased mortality; also recorded: decreased survival”, the survival (WT mice [4]; single subcutaneous injection 100 mg/kg 4h after ip LPS challenge (Figure 5I)) was “trend towards improved survival” and the survival (WT mice [4]; subcutaneous 4h before LPS (40 mg/kg ip), prophylactic (Figure 5J)) was “favorable effect”.
